These results are taken from patent US9187474B2, “Raf inhibitor compounds” (Deciphera Pharmaceuticals, LLC, priority 2012, dated 2015).

Series [1] concerns A375res cells.
Source text: (§1) A vemurafenib-resistant cell line is generated by chronic treatment of the human melanoma cell line A375 (ATCC) harboring the B-Raf V600E mutation with increasing concentrations PLX4720.
The subject of series [2] is phospho-ERK in A375 (B-Raf V600E) xenograft. Kind of series: A375 mouse xenograft pharmacodynamic assay (tumor pERK by ELISA). The class given is in vivo, mice. Particulars: 2 h post dose, vs vehicle, read-out: Measured pERK inhibition 2 h post dose; for inhibition in vivo at 20 mg/kg: A-375, 20 mg/kg oral. How it is done: To evaluate the in vivo pharmacodynamic (PD) effects of compounds of Formula I, an A375 (B-Raf V600E) xenograft model is employed. Briefly, 10×10^6 A375 tumor cells (ATCC) are prepared in a 1:1 matrigel mix (0.2 mL total volume) and implanted by subcutaneous injection in hind leg of nude female mice. A total of 4 mice each for each dosing group are employed. Treatment is initiated with oral administration (gavage) of test compound or vehicle (20% captisol, 25 mM phosphate, pH2.0) in 0.2 mL volume when average tumor size reaches approximately 300 mg. After a fixed time interval, the tumors are harvested and the phospho-ERK levels are measured by ELISA (Enzyme-linked immunosorbent assay). Treated groups are compared to the vehicle control group to calculate % inhibition.

Series [3] has as its system A375res cells. Kind of series: Proliferation assay in vemurafenib-resistant A375res melanoma cells. The conditions noted are these: Homo sapiens, 72 h, read-out: absolute IC50 values.
Source text: as §1
Series [4] concerns phospho-ERK in HCT-116 cells. Kind of series: HCT-116 cell pERK assay (AlphaScreen SureFire). Format: cell-based. The conditions noted are these: Homo sapiens; HCT-116 cells, B-Raf wild type, K-Ras mutation; 4 hours; read-out: IC50 reduction of phospho-ERK signal. How it is done:
Examples of Formula I are tested against HCT-116 cells harboring wild type B-Raf and K-Ras mutation. The phospho-ERK activities are evaluated as described below.
HCT-116 cells (catalog #CCL-247) are obtained from the American Type Culture Collection (ATCC, Manassas, Va.). Briefly, cells are grown in McCoy's 5A supplemented with 10% characterized fetal bovine serum (Invitrogen, Carlsbad, Calif.), and 1% Penicillin/Streptomycin/L-Glutamine at 37 degrees Celsius, 5% CO2, and 95% humidity. Cells are allowed to expand until reaching 75-90% confluency at which point they are subcultured or harvested for assay use. HCT-116 cells suspended in complete media are added to 384-well tissue culture treated plates (3×10^5 cells/mL; 7,500 cells per well). The cells are incubated overnight at 37 degrees Celsius, 5% CO2, and 95% humidity. Next, test compound or DMSO diluted in complete media is added to the wells (0.25% final DMSO concentration). The plates are then incubated for 4 hours at 37 degrees Celsius, 5% CO2, and 95% humidity. Following compound incubation, the cells are lysed at 4° C. for 20 minutes with shaking Cell lysates are centrifuged and the supernatant is transferred to a new plate. An aliquot of each lysate is transferred to a white 384-well assay plate. Using the AlphaScreen SureFire pERK kit (Perkin-Elmer, Waltham, Mass.), an acceptor bead mixture is added to each well and incubated for 2 h at room temperature in the dark. A donor bead mixture is then added to each well and incubated for 2 h at room temperature in the dark. Plates are read using a Synergy2 plate reader (Biotek, Winooski, Vt.) in Plate Mode with Timing Control. Read: (F)1: excitation: 680/30 nm, emission: Plug. 2: Excitation: Plug, emission: 570/100 nm. Top mirror 635 nm. Data is analyzed using Prism software (Graphpad, San Diego, Calif.) to calculate IC50 values and Excel software (Microsoft, Redmond, Wash.) to calculate stimulation compared to control.

Counter-ions that a name gives are not always drawn.

For `CNc1cc2nc(C)c(-c3cc(NC(=O)NCCC(C)(C)C)c(F)cc3C)cc2cn1` [Example 17, 1-(3,3-dimethylbutyl)-3-(2-fluoro-4-methyl-5-(2-methyl-7-(methylamino)-1,6-naphthyridin-3-yl)phenyl)urea], in the series on A375res cells [1], the “IC50 shift A375 to A375res” value is 0.5-4.9 fold. For the same compound, the inhibition in vivo at 20 mg/kg in series [2] is 89%. For the same compound, the IC50 with A375res cells [3] lay within 9 to 504 nM.
Regarding `CNc1cc2nc(C)c(-c3cc(NC(=O)NC[C@@H](O)C(C)(C)C)c(F)cc3C)cc2cn1` [Example 56, (S)-1-(2-fluoro-4-methyl-5-(2-methyl-7-(methylamino)-1,6-naphthyridin-3-yl)phenyl)-3-(2-hydroxy-3,3-dimethylbutyl)urea], the inhibition in vivo at 6 mg/kg in series [2] (A-375, 6 mg/kg oral) was determined as 75%. In addition, the IC50 in series [4] is 2 to 96 nM.
As to `Cc1cc(F)c(NC(=O)NCCC(C)(C)C)cc1-c1cc2cnc(N)cc2nc1C` [Example 129, 1-(5-(7-amino-2-methyl-1,6-naphthyridin-3-yl)-2-fluoro-4-methylphenyl)-3-(3,3-dimethylbutyl)urea hydrochloride], the IC50 lay in the range of 9 to 504 nM with A375res cells [3] and 2 to 96 nM in series [4].
In the case of `CNc1cc2nc(C)c(-c3cc(NC(=O)NCC4CC(C)(C)C4)c(F)cc3F)cc2cn1` [Example 13, 1-(2,4-difluoro-5-(2-methyl-7-(methylamino)-1,6-naphthyridin-3-yl)phenyl)-3-((3,3-dimethylcyclobutyl)methyl)urea hydrochloride], the “IC50 shift A375 to A375res” value with A375res cells [1] is on record as 0.5-4.9 fold. The figures for the IC50 (with A375res cells [3]; in series [4]) were 9 to 504 nM and 2 to 96 nM, respectively.
In the same order, the values of `CNc1cc2nc(C)c(-c3cc(NC(=O)NCCC4CC4)c(F)cc3C)cc2cn1` [Example 84, 1-(2-cyclopropylethyl)-3-(2-fluoro-4-methyl-5-(2-methyl-7-(methylamino)-1,6-naphthyridin-3-yl)phenyl)urea hydrochloride] are 0.5-4.9 fold, 9 to 504 nM and 2 to 96 nM.
Turning to `CNc1cc2nc(C)c(-c3cc(NC(=O)NCC(O)C(C)(C)C)c(F)cc3C)cc2cn1` (stereo not drawn) [Example 55, 1-(2-fluoro-4-methyl-5-(2-methyl-7-(methylamino)-1,6-naphthyridin-3-yl)phenyl)-3-(2-hydroxy-3,3-dimethylbutyl)urea], in the series with A375res cells [1], the “IC50 shift A375 to A375res” value is reported as 0.5-4.9 fold. Besides, the IC50 lay in the range of 9 to 504 nM in the series with A375res cells [3] and 2 to 96 nM in series [4].
`CNc1cc2nc(C)c(-c3cc(NC(=O)NC4CC(C)(C)C4)c(F)cc3F)cc2cn1` [Example 78, 1-(2,4-difluoro-5-(2-methyl-7-(methylamino)-1,6-naphthyridin-3-yl)phenyl)-3-(3,3-dimethylcyclobutyl)urea hydrochloride]: the inhibition in vivo at 20 mg/kg in series [2] is 68%.
Consider `CC(=O)Nc1cc2nc(C)c(-c3ccc(F)c(NC(=O)NCCC(C)(C)C)c3)cc2cn1` [Example 103, N-(3-(3-(3-(3,3-dimethylbutyl)ureido)-4-fluorophenyl)-2-methyl-1,6-naphthyridin-7-yl)acetamide], for which the inhibition in vivo at 20 mg/kg in series [2] was determined as 90%.
As for `CNc1cc2nc(C)c(-c3cc(NC(=O)NCCC(C)C)c(F)cc3C)cc2cn1` [Example 45, 1-(2-fluoro-4-methyl-5-(2-methyl-7-(methylamino)-1,6-naphthyridin-3-yl)phenyl)-3-isopentylurea], in the series on A375res cells [1], the “IC50 shift A375 to A375res” value is 0.5-4.9 fold. Moreover, the IC50 in the series on A375res cells [3] lay in the range of 9 to 504 nM; in series [4] it was 2 to 96 nM.
In the same order, the values of `Cc1cc(F)c(NC(=O)NCCC2(C(F)(F)F)CC2)cc1-c1cc2cnc(N)cc2nc1C` [Example 83, 1-(5-(7-amino-2-methyl-1,6-naphthyridin-3-yl)-2-fluoro-4-methylphenyl)-3-(2-(1-(trifluoromethyl)cyclopropyl)ethyl)urea hydrochloride] are 0.5-4.9 fold, 9 to 504 nM and 2 to 96 nM.
Consider `CNc1cc2ncc(-c3cc(NC(=O)NCCC(C)(C)F)c(F)cc3C)cc2cn1` [Example 93, 1-(3-fluoro-3-methylbutyl)-3-(2-fluoro-4-methyl-5-(7-(methylamino)-1,6-naphthyridin-3-yl)phenyl)urea], for which, in the series on A375res cells [1], the “IC50 shift A375 to A375res” value is reported as 0.5-4.9 fold. Also, the IC50 with A375res cells [3] is 9 to 504 nM; in series [4], 2 to 96 nM.
In the same order, the values of `CNc1cc2nc(C)c(-c3cc(NC(=O)NC4CCC(F)(F)CC4)c(F)cc3F)cc2cn1` [Example 88, 1-(2,4-difluoro-5-(2-methyl-7-(methylamino)-1,6-naphthyridin-3-yl)phenyl)-3-(4,4-difluorocyclohexyl)urea hydrochloride] are 0.5-4.9 fold, 9 to 504 nM and 2 to 96 nM.
For `CNc1cc2nc(C)c(-c3cc(NC(=O)NCCC4(C(F)(F)F)CC4)c(F)cc3C)cc2cn1` [Example 23, 1-(2-fluoro-4-methyl-5-(2-methyl-7-(methylamino)-1,6-naphthyridin-3-yl)phenyl)-3-(2-(1-(trifluoromethyl)cyclopropyl)ethyl)urea hydrochloride], in the series on A375res cells [1], the “IC50 shift A375 to A375res” value is given as 0.5-4.9 fold. Further, the values for the IC50 (with A375res cells [3]; in series [4]) were 9 to 504 nM and 2 to 96 nM, respectively.
In the case of `Cc1cc(F)c(NC(=O)NCCC(C)(C)F)cc1-c1cc2cnc(NC=O)cc2nc1C` [Example 125, N-(3-(4-fluoro-5-(3-(3-fluoro-3-methylbutyl)ureido)-2-methylphenyl)-2-methyl-1,6-naphthyridin-7-yl)formamide hydrochloride], the “IC50 shift A375 to A375res” value in the series on A375res cells [1] is 0.5-4.9 fold. Moreover, the results for the IC50 (in the series with A375res cells [3]; in series [4]) were 9 to 504 nM and 2 to 96 nM, respectively.
Regarding `CC(=O)Nc1cc2nc(C)c(-c3cc(NC(=O)NCCC(C)(C)C)c(F)cc3F)cc2cn1` [Example 105, N-(3-(5-(3-(3,3-dimethylbutyl)ureido)-2,4-difluorophenyl)-2-methyl-1,6-naphthyridin-7-yl)acetamide], in series [2], the inhibition in vivo at 20 mg/kg was 87%.
On the same count and under the same terms, for `CNc1cc2nc(C)c(-c3cc(NC(=O)NC[C@@H](O)C(C)C)c(F)cc3C)cc2cn1` [Example 75, (S)-1-(2-fluoro-4-methyl-5-(2-methyl-7-(methylamino)-1,6-naphthyridin-3-yl)phenyl)-3-(2-hydroxy-3-methylbutyl)urea] the value was 89%.
Regarding `CNc1cc2nc(C)c(-c3cc(NC(=O)NC4CCOC(C)(C)C4)c(F)cc3C)cc2cn1` (stereo not drawn) [Example 20, 1-(2,2-dimethyltetrahydro-2H-pyran-4-yl)-3-(2-fluoro-4-methyl-5-(2-methyl-7-(methylamino)-1,6-naphthyridin-3-yl)phenyl)urea hydrochloride], in the series on A375res cells [1], the “IC50 shift A375 to A375res” value is 0.5-4.9 fold. Further, the IC50 in the series with A375res cells [3] is 9 to 504 nM; in series [4] it was 2 to 96 nM.
In the case of `CNc1cc2nc(C)c(-c3cc(NC(=O)NCCC4(C)CC4)c(F)cc3F)cc2cn1` [Example 94, 1-(2,4-difluoro-5-(2-methyl-7-(methylamino)-1,6-naphthyridin-3-yl)phenyl)-3-(2-(1-methylcyclopropyl)ethyl)urea hydrochloride], the “IC50 shift A375 to A375res” value with A375res cells [1] is 0.5-4.9 fold. Further, the IC50 lay in the range of 9 to 504 nM in the series with A375res cells [3] and 2 to 96 nM in series [4].
As for `CC(=O)Nc1cc2nc(C)c(-c3cc(NC(=O)NCCC(C)(C)C#N)c(F)cc3F)cc2cn1` [Example 43, N-(3-(5-(3-(3-cyano-3-methylbutyl)ureido)-2,4-difluorophenyl)-2-methyl-1,6-naphthyridin-7-yl)acetamide], the inhibition in vivo at 20 mg/kg in series [2] is 55%.
